Results from patent publication US12102639B2, “Imipridones for gliomas” (Oncoceutics, Inc., priority 2017, dated 2024).
“Also recorded” adds a separate entry of the source.

Key:
[1] = test system: DRD2 (short and long isoforms); assay: GPCR β-arrestin recruitment reporter assay, DRD2; format: cell-based; conditions: for activity at DRD2: arrestin recruitment reporter assay
DRD5 = DRD5 (Homo sapiens, UniProt P21918); assay: GPCR β-arrestin recruitment reporter assay, DRD5; format: cell-based
[2] = test system: recurrent high grade glioma; assay: Progression-free survival of patients with recurrent high grade glioma; format: in vivo, human; conditions: H3 K27M (n=15) vs wild-type or unknown H3 status (n=35)
Description: In one study of thirty-nine pediatric diffuse intrinsic pontine gliomas, DIPG patients carrying the K27M-H3.3 mutation (n=30) have worse overall survival compared to patients wild-type (n=9) for this histone (Khoung-Quang et al., Acta Neuropathol (2012) 124:439). […] The cohort is divided into two groups: one with known H3 K27M mutation (n=15) and the other with wild-type or unknown H3 status (n=35).

[3] = test system: temozolomide-resistant high-grade glioma xenografts; assay: High-grade glioma xenografts in mice; format: in vivo
[4] = test system: GDSC collection of cell lines; assay: Genomic of Drug Sensitivity in Cancer (GDSC) cell line collection; format: cell-based, human; conditions: cell viability at 72 hours post-treatment
Description: FIG. 2. Tumor type sensitivity of the Genomic of Drug Sensitivity in Cancer program (GDSC) cell line collection. […] Numbers above the bar indicates indicate the number of cell lines per tumor type.
High expression of DRD2 occurred in primary, rather than secondary, glioblastoma and was associated with a poor prognosis. […] Resistance could be recapitulated with overexpression of the mutant DRD5 gene or, to a lesser extent, with the wild-type gene.

DRD4 = DRD4 (Homo sapiens, UniProt P21917); conditions: arrestin recruitment reporter assay
DRD2 = DRD2 (Homo sapiens, UniProt P14416); conditions: relative to antipsychotics
MV411 AML cells = assay: MV411 AML xenograft model; conditions: 50 mg/kg, oral weekly administration (ONC201 at similar doses)
[5] = test system: tumor cells (HCT116, MDA-MB-231, U87); assay: Cell viability of tumor cells after 72 hours; conditions: Homo sapiens, read-out: viability of tumor cells
[6] = test system: H3.3 K27M mutant diffuse intrinsic pontine glioma (DIPG); assay: Treatment of girls with H3.3 K27M mutant DIPG; conditions: for symptoms / radiographic evaluation of tumor: child
[7] = Phase II recurrent glioblastoma trial (NCT02525692); conditions: human, in vivo, 625 mg
recurrent glioblastoma = assay: as above
GPCRs = assay: In vitro profiling of GPCR activity (arrestin recruitment panel)
[8] = test system: NCI60 cancer cell line panel; assay: NCI60 cancer cell line panel; format: cell-based; conditions: NCI60 panel (FIG. 4)
[9] = test system: Ewing's sarcoma cell lines; assay: Ewing's sarcoma cell lines; format: cell-based; conditions: 16 Ewing's sarcoma cell lines (FIG. 6, 7)
[10] = test system: patient-derived glioma stem cell (GSC) populations; assay: Patient-derived glioma stem cell assays (CellTiter-Glo, limiting dilution, sphere formation); format: cell-based, human
Description: In silico analysis of a glioma patient database led to investigation of DRD2 signaling in glioma; alteration of DRD2 mRNA expression was directly connected to global gene expression change in the glioma patient database.

Bone cancer = Bone cancer responsiveness; format: cell-based; conditions: FIG. 5
HFF (Normal Fibroblast) = assay: Cell viability of HFF normal fibroblasts; conditions: therapeutic doses, Table 5
several cell lines = assay: In vitro potency in several cell lines (Table 5)
DRD3 = DRD3 (Homo sapiens, UniProt P35462); assay: GPCR β-arrestin recruitment reporter assay, DRD3; format: cell-based
GPR132 = biological target: T1, GPR132 (Homo sapiens, UniProt Q9UNW8); assay: GPCR arrestin recruitment reporter assay, GPR132; format: cell-based; conditions: for activity at GPR132: arrestin recruitment reporter assay
T1 construct: expressed in transfected cells
T1 sequence (Q9UNW8 1-380): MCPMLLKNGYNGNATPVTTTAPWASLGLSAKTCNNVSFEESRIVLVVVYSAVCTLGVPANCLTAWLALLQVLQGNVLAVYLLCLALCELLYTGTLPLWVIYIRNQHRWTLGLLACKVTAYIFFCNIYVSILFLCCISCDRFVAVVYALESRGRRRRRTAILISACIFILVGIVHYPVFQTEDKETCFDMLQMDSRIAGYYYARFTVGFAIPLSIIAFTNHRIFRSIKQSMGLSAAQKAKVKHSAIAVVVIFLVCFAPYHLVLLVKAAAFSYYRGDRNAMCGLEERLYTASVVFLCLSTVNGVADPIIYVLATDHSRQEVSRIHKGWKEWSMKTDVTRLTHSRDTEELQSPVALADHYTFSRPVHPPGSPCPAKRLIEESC
Method: (§1) Dual targeting of DRD2/3 and GPR132/91 represents a novel strategy for anti-cancer efficacy without toxicity. […] The safety profile of ONC213 confirmed in mouse MTD study with NOAEL 75 mg/kg three times that of ONC212 (25 mg/kg).
(§2) ONC201 dihydrochloride was obtained from Oncoceutics.

GPR91 = biological target: T2, GPR91 (Homo sapiens, UniProt Q9BXA5); assay: GPCR arrestin recruitment reporter assay, GPR91; format: cell-based
T2 construct: expressed in transfected cells
Method: as §1, §2

CXCR7 = biological target: T3, CXCR7 (Homo sapiens, UniProt P25106); assay: GPCR arrestin recruitment reporter assay, CXCR7; format: cell-based
T3 construct: expressed in transfected cells
Description: as §2

HCT116 cells = assay: Anticancer efficacy in HCT116 cells; format: cell-based, human; conditions: HCT116 cells
DRD2L = DRD2L (Homo sapiens, UniProt P14416); assay: Arrestin recruitment to DRD2L, Gaddum/Schild EC50 shift analysis; format: cell-based
[11] = 17 patients, 625 mg every three weeks

Sequence of DRD5 (P21918 whole entry): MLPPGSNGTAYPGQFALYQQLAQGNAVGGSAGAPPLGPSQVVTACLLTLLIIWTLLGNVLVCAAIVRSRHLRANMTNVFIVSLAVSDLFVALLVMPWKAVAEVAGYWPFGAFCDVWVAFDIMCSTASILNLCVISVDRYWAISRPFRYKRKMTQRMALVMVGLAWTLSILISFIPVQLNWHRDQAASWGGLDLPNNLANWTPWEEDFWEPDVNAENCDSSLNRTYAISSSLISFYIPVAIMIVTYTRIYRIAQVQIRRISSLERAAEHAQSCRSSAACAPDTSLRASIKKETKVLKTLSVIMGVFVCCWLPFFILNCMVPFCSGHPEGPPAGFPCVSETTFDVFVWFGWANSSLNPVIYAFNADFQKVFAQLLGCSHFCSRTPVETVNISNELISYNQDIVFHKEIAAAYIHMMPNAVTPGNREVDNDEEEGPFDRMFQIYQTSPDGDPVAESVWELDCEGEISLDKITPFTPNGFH
T3 sequence (P25106 whole entry): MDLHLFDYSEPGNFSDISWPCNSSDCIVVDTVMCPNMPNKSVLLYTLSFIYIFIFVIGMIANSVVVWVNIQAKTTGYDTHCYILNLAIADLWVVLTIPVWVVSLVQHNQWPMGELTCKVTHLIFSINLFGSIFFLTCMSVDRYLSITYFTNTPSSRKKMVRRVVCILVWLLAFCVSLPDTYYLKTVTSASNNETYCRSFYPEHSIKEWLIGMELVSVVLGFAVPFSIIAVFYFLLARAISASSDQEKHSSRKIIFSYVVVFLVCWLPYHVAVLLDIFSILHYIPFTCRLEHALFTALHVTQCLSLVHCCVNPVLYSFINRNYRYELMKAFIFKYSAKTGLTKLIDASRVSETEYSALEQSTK
Sequence of DRD2 (P14416 whole entry): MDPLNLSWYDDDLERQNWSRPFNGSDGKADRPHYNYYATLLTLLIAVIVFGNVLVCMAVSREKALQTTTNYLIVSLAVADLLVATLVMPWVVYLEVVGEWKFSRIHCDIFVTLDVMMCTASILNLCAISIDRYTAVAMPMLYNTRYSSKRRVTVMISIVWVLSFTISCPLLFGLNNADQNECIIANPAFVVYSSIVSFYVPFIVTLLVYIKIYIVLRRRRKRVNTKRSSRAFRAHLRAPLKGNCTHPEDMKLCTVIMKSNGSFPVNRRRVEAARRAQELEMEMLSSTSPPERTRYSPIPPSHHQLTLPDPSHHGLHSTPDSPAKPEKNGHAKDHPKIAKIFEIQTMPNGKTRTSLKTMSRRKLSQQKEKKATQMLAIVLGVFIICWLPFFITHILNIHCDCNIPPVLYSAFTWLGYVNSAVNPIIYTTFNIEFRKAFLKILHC
Sequence of DRD2L (P14416 whole entry): as above
T2 sequence (Q9BXA5 whole entry): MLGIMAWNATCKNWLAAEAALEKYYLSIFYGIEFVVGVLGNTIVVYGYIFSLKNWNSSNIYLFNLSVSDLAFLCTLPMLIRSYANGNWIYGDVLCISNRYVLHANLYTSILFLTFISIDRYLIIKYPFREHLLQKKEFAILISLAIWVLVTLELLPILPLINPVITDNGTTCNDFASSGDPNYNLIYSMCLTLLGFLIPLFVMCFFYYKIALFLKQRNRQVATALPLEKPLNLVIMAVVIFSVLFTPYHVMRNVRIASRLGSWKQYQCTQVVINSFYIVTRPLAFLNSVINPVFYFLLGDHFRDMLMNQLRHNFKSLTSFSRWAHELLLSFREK
Sequence of DRD3 (P35462 whole entry): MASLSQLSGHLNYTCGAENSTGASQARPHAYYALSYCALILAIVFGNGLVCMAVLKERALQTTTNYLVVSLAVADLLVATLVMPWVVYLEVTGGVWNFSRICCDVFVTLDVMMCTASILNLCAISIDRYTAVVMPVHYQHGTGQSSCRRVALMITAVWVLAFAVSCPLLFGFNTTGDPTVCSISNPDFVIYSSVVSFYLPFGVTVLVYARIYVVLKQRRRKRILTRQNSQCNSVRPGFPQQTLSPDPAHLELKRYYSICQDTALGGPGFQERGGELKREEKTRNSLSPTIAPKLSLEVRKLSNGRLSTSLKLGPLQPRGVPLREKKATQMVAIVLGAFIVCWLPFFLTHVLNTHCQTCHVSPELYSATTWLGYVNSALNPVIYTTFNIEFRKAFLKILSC
Sequence of DRD4 (P21917 whole entry): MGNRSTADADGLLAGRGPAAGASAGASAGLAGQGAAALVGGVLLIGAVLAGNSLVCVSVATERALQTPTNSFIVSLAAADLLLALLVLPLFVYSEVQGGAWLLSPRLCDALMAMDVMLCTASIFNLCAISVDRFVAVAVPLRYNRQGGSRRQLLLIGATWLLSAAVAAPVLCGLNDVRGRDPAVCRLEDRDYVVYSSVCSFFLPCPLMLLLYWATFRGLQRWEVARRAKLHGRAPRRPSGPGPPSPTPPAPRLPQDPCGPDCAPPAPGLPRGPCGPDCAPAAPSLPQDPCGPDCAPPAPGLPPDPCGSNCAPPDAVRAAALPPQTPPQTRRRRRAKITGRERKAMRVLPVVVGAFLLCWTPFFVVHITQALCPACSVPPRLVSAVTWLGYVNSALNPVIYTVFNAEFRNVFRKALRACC

## Cc1ccccc1CN1C(=O)C2=C(CCN(Cc3ccccc3)C2)N2CCN=C12 [ONC201, 7-benzyl-4-(2-methylbenzyl)-1,2,6,7,8,9-hexahydroimidazo [1,2-a]pyrido [3,4-e]pyrimidin-5(1H)-one]
[1]
  activity at DRD2: selectively antagonizes; also recorded: antagonized
DRD5
  activity at DRD5: no antagonism; also recorded: but not D1-like (DRD1/5)
[2]
  progression-free survival (PFS): superior progression-free survival (PFS) in H3 K27M patients
[3]; monoagent and in combination with bevacizumab
  survival of mice with orthotopic xenografts: prolongs the survival
[3]; temozolomide-resistant high-grade glioma xenografts
  effect on xenografts: shrinks
[4]
  in vitro efficacy profiling: broad anti-cancer efficacy with high sensitivity in human brain cancer cell lines
DRD4
  activity at DRD4: weaker potency
kinome
  interactions with the kinome: no significant interactions
DRD2
  association rate for DRD2: very slow
MV411 AML cells
  leukemia xenograft tumor growth: not efficacious
[5]
  viability at 5000 µg/mL: < 25%
[6]; 125 mg once weekly
  symptoms: complete resolution of their inability to use their left arm and hand
[6]; 125 mg once weekly, after 6 weeks
  radiographic evaluation of tumor: stable tumor lesion
[6]; 500 mg once weekly
  symptoms: near-complete resolution of their facial palsy; also recorded: improvement in facial palsy
[6]; 500 mg once weekly, after 16 weeks
  radiographic evaluation of tumor: significant regression; also recorded: shrinkage of lesion
[6]; once weekly dosing
  tolerability: tolerates the therapy well
[7]
  concentration at 2 h: 2600 ng/mL
Recurrent glioblastoma; [11]
  Median OS: 41.6 weeks
  OS12: 35%
Recurrent glioblastoma; one patient, 625 mg every three weeks, after 15 months of therapy
  regression: 92%
Recurrent glioblastoma; person one
  time on study: > 10 weeks
Recurrent glioblastoma; person one, H3 K27M, first on-treatment evaluation at 8 weeks
  response: complete disappearance of malignant lesions; also recorded: complete disappearance of tumor lesions
Recurrent glioblastoma; person two
  time on therapy with durable response: > 1.5 years
Recurrent glioblastoma; person two, H3.3 K27M mutant, 625 mg once every three weeks
  response: durable objective response with complete regression of thalamic lesions
Recurrent glioblastoma; person two, H3.3 K27M mutant, 625 mg once every three weeks, after 18 doses
  overall tumor size regression: 96%
Recurrent glioblastoma; surrogate marker of target engagement
  serum prolactin: serum prolactin induction was observed; also recorded: significant induction of serum prolactin
GPCRs
  GPCR profile: Antagonism of adrenoceptor alpha receptors or other GPCRs was not observed

## O=C1C2=C(CCN(Cc3ccccc3)C2)N2CCN=C2N1Cc1cccs1 [ONC203]
[8]
  anti-cancer efficacy: inactive negative control

## O=C1C2=C(CCN(Cc3ccccc3)C2)N2CCN=C2N1Cc1ccc(F)cc1F [ONC206]
[1]
  activity at DRD2: selective DRD2 antagonism
[8]
  anti-cancer efficacy: demonstrated anti-cancer efficacy across various tumor types
[9]
  anti-cancer efficacy: most ONC206 responsive bone cancer subtype; also recorded: nanomolar range in 14 out of 16 Ewing's sarcoma cell lines
[10]; CellTiter-Glo cell viability, compared to differentiated glioma cells
  effect on glioma stem cells: potently inhibits; also recorded: preferentially eliminated GSCs
[10]; in vitro limiting dilution assay and sphere formation analysis
  tumor sphere formation: prevented tumor sphere formation and tumor growth
Bone cancer
  responsiveness: more responsive to ONC206 than ONC201
HFF (Normal Fibroblast)
  in vitro toxicity to normal cells: no in vitro toxicity to normal cells at therapeutic doses
Several cell lines
  improvement in in vitro potency compared to ONC201: up to 20 fold

## O=C1C2=C(CCN(Cc3ccccc3)C2)N2CCN=C2N1Cc1ccc(F)c(F)c1 [ONC213]
[1]
  activity at DRD2: inhibitor
[1]; rank against other imipridones
  DRD2/3 potency: more than ONC201 but less than ONC206
DRD3
  activity at DRD3: inhibitor
GPR132
  activity at GPR132: agonist
GPR132; rank against other imipridones
  GPR132 potency: less than ONC212
GPR91
  activity at GPR91: agonist

## O=C1C2=C(CCN(Cc3ccc(Cl)c(Cl)c3)C2)N2CCN=C2N1Cc1ccc(C(F)(F)F)cc1 [ONC234]
[1]
  activity at DRD2: antagonist activity
DRD5
  activity at DRD5: antagonist activity
CXCR7; arrestin recruitment reporter assay
  activity at CXCR7: agonist activity
GPCRs
  GPCR profile: broad spectrum and potent GPCR targeting small molecule

## O=C1C2=C(CCN(Cc3ccsc3)C2)N2CCN=C2N1Cc1ccc(C(F)(F)F)cc1 [ONC236]
HCT116 cells
  IC50: 234 nM
HCT116 cells; Homo sapiens, HCT-116
  IC50: 88 nM
GPR132
  activity at GPR132: highly selective GPR132 agonist

## O=C1C2=C(CCN(CC(O)c3ccccc3)C2)N2CCN=C2N1Cc1ccc(C(F)(F)F)cc1 (centres unmarked) [ONC237]
DRD5
  activity at DRD5: antagonist
GPR132
  activity at GPR132: agonist

## Cc1ccccc1CN1C2=NCCN2C(=O)C2=C1CCN(Cc1ccccc1)C2 [TIC-10, reference compound]
CXCR7; statement in the description, no method given
  activity at CXCR7: CXCR7 agonist

## TIC-10
DRD2L
  inhibition of DRD2L: did not inhibit
